Read-outs that look alike come from different tables or passages of the source.
Tests used:
[1] = Isoelectric point (PI) measurement; assay type: physicochemical; details: unlabeled compound
[2] = test system: HUTU-80 human duodenal adenocarcinoma cell line; assay: Cell uptake and inhibition assay, HUTU-80; assay type: cell-based
Protocol: The cell lines involved in the cell experiments in the test examples include: SUM149PT human breast cancer cell line, HUTU-80 human duodenal adenocarcinoma cell line, and U-118 MG human brain astrocytoma/glioblastoma cell line.
HUTU-80: Complete medium was formulated using DMEM high-glucose medium, 10% FBS, and a penicillin-streptomycin solution. The cells were cultured in a constant temperature incubator at 37° C. with 5% CO2. The culture medium was regularly replaced, and the cells were passaged. The culture medium was generally changed every 2 to 3 days. The growth of the tumor cells was observed daily under a microscope, including monitoring cell growth status, checking for adherence, examining cell morphology for any abnormalities, checking for contamination, and observing medium color for any abnormalities. Cells were passaged when they reached 80-90% confluence.
When cell confluence in the culture flask reached 80%, the cells were digested and centrifuged, and the supernatant was removed. An appropriate amount of medium was added to dilute so that each well contained 500 μL of medium for plating. After thorough mixing by pipetting, the cell suspension was seeded into a 24-well plate at a density of 5×10^5 cells per well. The plate was then placed into the incubator for continued growth. The cells were ready for cellular experiments when they reached 80% confluence.
(1) The cell uptake assay established four incubation time points: 15, 30, 60, and 120 minutes, respectively. For each time point, four groups were set up: non-inhibition group, a first single inhibition group (FAP single inhibition), a second single inhibition group (CXCR4/GRPR/αvβ3 single inhibition), and a dual inhibition group (FAP inhibitor+CXCR4/GRPR/αvβ3 inhibitor). Each group at each time point was set up with 3 triplicate wells.
(§1) (2) Cells were plated into a 24-well plate according to the cell plating procedure described above.
(3) The original culture medium was removed from the 24-well plate. Then, 400 μL of 100 mg/mL skimmed milk solution was added to each well for blocking for one hour. After removing the skimmed milk solution, each of the wells was washed three times by adding 400 μL of PBS solution. Subsequently, 146 μL of FBS-free medium was added to each well. […]
(6) The radioactivity in the cells was measured using a γ counter. […]

[3] = test system: HUTU-80 human duodenal adenocarcinoma cell line; assay: Cell saturation binding assay, HUTU-80; details: 68Ga-labeled compound
Protocol: (1) For the cell saturation binding assay, a total of 8 radiolabeled ligand concentrations were set at intervals within the anticipated range. For each concentration, there were 3 groups: the non-inhibition group, the first single inhibition group (FAP single inhibition group), and the second single inhibition group (CXCR4/GRPR/αvβ3 single inhibition group). For each concentration and each group, 3 replicate wells were established.
as §1
(3) The original culture medium was removed from the 24-well plate. Then, 400 μL of 100 mg/mL skimmed milk solution was added to each well for blocking for one hour. After removing the skimmed milk solution, each of wells was washed three times by adding 400 μL of PBS solution. Subsequently, 146 μL of FBS-free medium was added to each well. Next, the non-inhibition group received 4 μL of cold PBS per well, while the first single inhibition group and the second single inhibition group received the following additions per well according to Table 4: 2 μL of non-radiolabeled first single inhibitor solution and 2 μL of cold PBS; 2 μL of non-radiolabeled second single inhibitor solution and 2 μL of cold PBS. The plate was then incubated at room temperature for one hour.
(4) The ligands were radiolabeled with 68Ga using the labeling method described previously. Different volumes of FBS-free medium were added to formulate the radioligand systems at corresponding concentrations. Then, 50 μL of the corresponding concentration of the radioligand system was added to each well.
(5) The supernatant was removed, and the wells were washed three times with 400 μL of PBS. 200 μL of IM NaOH solution was added to each well for cell lysis. […] Each well was washed once with 400 μL of PBS solution, and the washings were sequentially added to the corresponding radioimmunoassay tubes.
(6) Radioactivity in the cells was measured using a γ counter. The equilibrium dissociation constant (KD) was obtained by fitting the curve using nonlinear regression analysis in GraphPad Prism software. KD is the drug concentration that causes half of the maximum effect (50% receptor occupancy).

With `CC(C)CC(CC(C)C)NC(=O)[C@H](Cc1cnc[nH]1)NC(=O)CNC(=O)C(NC(=O)[C@H](C)NC(=O)[C@H](Cc1c[nH]c2ccccc12)NC(=O)[C@H](CCC(N)=O)NC(=O)[C@@H](Cc1ccccc1)NC(=O)COCC(=O)Nc1ccc(CNC(=O)COCCOCCNC(=O)COCCOCCNC(=O)[C@H](CCCCNC(=O)CN2CCN(CC(=O)O)CCN(CC(=O)O)CCN(CC(=O)O)CC2)NC(=O)CCC(=O)N2CCN(CCCOc3ccc4nccc(C(=O)NCC(=O)N5CC(F)(F)C[C@H]5C#N)c4c3)CC2)cc1)C(C)C` (stereo partly drawn) [SDYD03] the “PI range of series of peaks” value [1] was 5.992-7.095, the “cell uptake over incubation time (in words)” value ([2]; 15-120 minutes) was “increased slowly and reached a plateau from 15 to 120 minutes” and the “cell uptake, comparison of non-inhibition, FAP single, GRPR single and dual inhibition groups (in words)” value ([2]; FAPI-04 and BBN as inhibitors) was “cell uptake in the non-inhibition group was consistently higher than that in the other three groups”. For the same molecule, the “inhibition rate, comparison of inhibition groups (in words)” value ([2]; FAPI-04 and BBN as inhibitors) was “inhibition rate of the dual inhibition group was higher than that of the FAP single inhibition group and the GRPR single inhibition group”, the “specific binding to FAP and GRPR (in words)” value ([2]; conclusion from inhibition groups) was “can specifically bind to both FAP and GRPR” and the “KD values / binding affinity to the receptors (in words)” value [3] was “relatively low KD values”. The Kd ([3]; BBN solution (GRPR inhibitor), read-out: KD value, Second single inhibition group (CXCR4/GRPR/αvβ3 single inhibition)) was 1.76 ± 0.224 nM, the Kd ([3]; FAPI-04 solution, read-out: KD value, First single inhibition group (FAP single inhibition)) was 0.884 ± 0.152 nM and the Kd ([3]; read-out: KD value, Non-inhibition group) was 1.23 ± 0.331 nM.
